Data published in ChEMBL document CHEMBL1201862, “PubChem BioAssay data set” (2004).
Calls of active or inactive are those of the source.

How the values were obtained:
Format in all cases: functional
Caspase-3 = target: T1, Caspase-3 (Homo sapiens, UniProt P42574);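 also: Dose-response selectivity test against caspase-3 for candidate inhibitors of sentrin-specific proteases (SENPs)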
T1 sequence (P42574 whole entry): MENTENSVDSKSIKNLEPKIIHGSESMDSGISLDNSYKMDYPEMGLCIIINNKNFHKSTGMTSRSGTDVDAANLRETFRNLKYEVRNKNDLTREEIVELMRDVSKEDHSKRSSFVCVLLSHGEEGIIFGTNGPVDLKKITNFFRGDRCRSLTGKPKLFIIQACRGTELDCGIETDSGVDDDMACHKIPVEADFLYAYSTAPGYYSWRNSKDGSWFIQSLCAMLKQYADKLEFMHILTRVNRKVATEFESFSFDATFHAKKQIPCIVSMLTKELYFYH

[1] = target: T2, Sentrin-specific protease 7 (Homo sapiens, UniProt Q9BQF6);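 also: Luminescence-based dose-response confirmation of ultra-high-throughput screening hits, measuring inhibition of SENP7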
T2 sequence (Q9BQF6 whole entry): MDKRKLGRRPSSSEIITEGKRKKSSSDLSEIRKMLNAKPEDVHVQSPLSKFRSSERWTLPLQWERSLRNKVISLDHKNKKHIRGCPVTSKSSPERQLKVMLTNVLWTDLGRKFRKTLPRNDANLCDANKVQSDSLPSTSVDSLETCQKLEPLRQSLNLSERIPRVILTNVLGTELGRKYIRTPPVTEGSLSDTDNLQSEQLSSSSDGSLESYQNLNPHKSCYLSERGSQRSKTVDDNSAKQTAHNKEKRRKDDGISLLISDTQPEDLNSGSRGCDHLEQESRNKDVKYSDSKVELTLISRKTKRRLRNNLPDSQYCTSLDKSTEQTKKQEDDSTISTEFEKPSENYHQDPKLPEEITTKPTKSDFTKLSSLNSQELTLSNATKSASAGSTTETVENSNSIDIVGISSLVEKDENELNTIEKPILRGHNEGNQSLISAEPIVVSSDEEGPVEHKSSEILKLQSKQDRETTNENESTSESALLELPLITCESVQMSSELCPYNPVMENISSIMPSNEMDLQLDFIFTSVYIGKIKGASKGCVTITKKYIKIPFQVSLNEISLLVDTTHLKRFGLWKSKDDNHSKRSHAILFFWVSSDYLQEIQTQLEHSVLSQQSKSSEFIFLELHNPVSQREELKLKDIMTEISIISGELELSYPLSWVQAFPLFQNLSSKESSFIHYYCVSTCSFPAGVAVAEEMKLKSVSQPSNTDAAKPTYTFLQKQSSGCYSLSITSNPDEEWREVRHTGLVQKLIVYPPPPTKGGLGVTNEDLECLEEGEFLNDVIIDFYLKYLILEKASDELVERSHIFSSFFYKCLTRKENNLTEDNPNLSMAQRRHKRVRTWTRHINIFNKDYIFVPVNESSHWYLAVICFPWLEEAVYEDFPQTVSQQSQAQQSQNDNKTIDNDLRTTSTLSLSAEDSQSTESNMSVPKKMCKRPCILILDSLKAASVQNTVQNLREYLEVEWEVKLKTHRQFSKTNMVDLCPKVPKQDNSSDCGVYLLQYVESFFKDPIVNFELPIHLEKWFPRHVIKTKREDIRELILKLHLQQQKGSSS

[2] = target: T3, Sentrin-specific protease 8 (Homo sapiens, UniProt Q96LD8);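 also: luminescence read-out of SENP8 inhibition, dose-response confirmation following an ultra-high-throughput screen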
T3 sequence (Q96LD8 whole entry): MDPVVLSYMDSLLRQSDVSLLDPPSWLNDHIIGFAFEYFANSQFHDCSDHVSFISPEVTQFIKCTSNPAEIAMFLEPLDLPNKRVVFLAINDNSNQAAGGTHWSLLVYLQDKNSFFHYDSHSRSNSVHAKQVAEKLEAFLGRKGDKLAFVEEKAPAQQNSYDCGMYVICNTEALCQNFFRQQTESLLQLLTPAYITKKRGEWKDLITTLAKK

[3] = target: T4, Sentrin-specific protease 6 (Homo sapiens, UniProt Q9GZR1);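 also: Luminescence-based dose-response confirmatory assay of SENP6 inhibition, following up an ultra-high-throughput screen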
T4 sequence (Q9GZR1 whole entry): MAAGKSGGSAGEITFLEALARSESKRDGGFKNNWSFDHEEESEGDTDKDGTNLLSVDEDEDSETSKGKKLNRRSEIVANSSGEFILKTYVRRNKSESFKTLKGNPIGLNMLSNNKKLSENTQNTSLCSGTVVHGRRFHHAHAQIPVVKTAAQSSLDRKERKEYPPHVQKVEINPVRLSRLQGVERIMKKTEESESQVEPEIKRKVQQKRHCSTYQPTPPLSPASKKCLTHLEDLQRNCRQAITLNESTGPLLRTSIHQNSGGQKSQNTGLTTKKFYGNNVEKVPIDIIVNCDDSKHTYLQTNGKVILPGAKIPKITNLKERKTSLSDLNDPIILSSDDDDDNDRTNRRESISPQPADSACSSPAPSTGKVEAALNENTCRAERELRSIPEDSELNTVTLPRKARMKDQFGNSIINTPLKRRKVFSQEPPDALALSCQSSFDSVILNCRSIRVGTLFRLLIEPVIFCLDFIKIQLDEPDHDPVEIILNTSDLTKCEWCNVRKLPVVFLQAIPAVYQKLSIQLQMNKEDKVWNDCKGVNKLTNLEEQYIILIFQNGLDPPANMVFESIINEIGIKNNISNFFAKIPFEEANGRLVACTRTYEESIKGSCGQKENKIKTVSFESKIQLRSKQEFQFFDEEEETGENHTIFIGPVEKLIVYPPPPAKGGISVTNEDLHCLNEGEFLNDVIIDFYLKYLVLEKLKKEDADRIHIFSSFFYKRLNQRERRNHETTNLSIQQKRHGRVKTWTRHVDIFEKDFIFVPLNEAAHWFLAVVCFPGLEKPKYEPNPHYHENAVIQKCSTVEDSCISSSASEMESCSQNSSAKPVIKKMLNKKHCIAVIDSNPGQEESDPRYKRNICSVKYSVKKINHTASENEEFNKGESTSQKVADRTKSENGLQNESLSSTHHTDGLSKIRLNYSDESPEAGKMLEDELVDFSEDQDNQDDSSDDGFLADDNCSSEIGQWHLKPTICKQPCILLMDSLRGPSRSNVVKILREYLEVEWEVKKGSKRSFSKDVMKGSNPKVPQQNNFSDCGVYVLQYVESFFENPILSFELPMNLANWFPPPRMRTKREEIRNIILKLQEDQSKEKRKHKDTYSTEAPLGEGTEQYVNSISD

Phospholipase D2 = Phospholipase D2 (Homo sapiens, UniProt O14939); test: cellular phospholipase D2 inhibition IC50 – cell-based, dose response (AID 602147);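 also: cellular assay in HEK293 cells overexpressing GFP-tagged PLD2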
Phospholipase D2, sequence (O14939 whole entry): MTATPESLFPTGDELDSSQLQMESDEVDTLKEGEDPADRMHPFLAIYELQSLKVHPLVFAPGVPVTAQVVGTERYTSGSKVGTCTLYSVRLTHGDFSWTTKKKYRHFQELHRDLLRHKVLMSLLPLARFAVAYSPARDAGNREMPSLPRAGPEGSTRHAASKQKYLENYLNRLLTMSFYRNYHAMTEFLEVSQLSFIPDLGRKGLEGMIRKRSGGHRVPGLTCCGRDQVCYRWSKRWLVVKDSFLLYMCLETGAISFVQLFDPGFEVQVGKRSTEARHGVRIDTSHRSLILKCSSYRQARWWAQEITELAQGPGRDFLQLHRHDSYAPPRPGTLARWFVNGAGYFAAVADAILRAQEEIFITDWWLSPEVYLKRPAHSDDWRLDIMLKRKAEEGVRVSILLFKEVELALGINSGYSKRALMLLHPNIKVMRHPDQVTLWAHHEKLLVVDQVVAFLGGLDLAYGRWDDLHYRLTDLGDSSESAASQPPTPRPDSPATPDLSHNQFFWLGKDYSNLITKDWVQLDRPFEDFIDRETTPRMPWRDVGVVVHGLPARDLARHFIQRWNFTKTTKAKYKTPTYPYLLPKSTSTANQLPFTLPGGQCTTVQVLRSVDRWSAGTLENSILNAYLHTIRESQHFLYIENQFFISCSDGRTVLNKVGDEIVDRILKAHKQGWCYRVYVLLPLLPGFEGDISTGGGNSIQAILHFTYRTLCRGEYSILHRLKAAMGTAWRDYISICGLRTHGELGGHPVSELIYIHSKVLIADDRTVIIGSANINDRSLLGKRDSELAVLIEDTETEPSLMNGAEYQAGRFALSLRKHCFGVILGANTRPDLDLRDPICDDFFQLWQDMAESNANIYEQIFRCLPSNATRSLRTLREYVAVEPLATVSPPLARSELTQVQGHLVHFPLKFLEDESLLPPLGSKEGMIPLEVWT

Phospholipase D1 = target: T5, Phospholipase D1 (Homo sapiens, UniProt Q13393); test: cellular phospholipase D1 inhibition IC50 – cell-based, dose response (AID 602151);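 also: cellular PLD1 assay in Calu-1 cells stimulated with PMA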
T5 sequence (Q13393 whole entry): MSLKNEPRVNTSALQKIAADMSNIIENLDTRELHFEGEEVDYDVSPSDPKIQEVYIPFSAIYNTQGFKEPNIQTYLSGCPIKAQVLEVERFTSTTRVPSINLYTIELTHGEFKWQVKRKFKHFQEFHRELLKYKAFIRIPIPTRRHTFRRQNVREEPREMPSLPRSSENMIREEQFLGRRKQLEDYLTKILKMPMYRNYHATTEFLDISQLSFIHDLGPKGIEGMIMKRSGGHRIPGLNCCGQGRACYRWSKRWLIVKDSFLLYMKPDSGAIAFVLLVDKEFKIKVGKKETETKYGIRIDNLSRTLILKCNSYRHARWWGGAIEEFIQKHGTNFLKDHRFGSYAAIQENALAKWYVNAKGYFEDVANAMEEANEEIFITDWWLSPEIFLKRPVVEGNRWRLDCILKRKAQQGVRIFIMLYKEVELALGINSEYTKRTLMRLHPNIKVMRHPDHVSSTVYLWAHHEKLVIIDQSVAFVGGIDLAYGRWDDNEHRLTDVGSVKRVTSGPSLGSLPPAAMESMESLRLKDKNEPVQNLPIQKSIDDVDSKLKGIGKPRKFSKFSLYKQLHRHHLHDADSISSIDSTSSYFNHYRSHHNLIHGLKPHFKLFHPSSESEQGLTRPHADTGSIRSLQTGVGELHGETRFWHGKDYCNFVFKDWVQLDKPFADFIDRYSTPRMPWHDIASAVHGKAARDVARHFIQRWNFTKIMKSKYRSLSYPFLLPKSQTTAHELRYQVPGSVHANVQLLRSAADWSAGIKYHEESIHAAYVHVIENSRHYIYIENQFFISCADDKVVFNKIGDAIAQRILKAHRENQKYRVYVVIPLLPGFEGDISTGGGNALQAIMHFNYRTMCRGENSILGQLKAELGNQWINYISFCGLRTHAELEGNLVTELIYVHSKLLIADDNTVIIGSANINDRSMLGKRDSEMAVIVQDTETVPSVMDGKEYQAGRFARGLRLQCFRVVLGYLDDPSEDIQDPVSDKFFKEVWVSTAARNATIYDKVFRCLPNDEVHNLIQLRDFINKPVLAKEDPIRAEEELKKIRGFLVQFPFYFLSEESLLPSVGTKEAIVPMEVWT

H4 = test: Luminescence Cell-Based Dose Response HTS to Identify Activators of 5'UTR Stem-Loop Driven Prion Protein mRNA Translation in H4 Neuroglioblastoma Cells. [Related pubchem assays: 1829 (Project Summary), 1814 (Primary HTS)]; settings: Homo sapiens
[4] = Luminescence Cell-Based Dose Response HTS to Identify Activators of Luciferase Translation or Activity in H4 […] Cells. [Related pubchem assays: 1829 (Project Summary), 1814 (Primary HTS)]
[5] = target: Glycogen synthase kinase-3 beta (Homo sapiens, UniProt P49841);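 also: value comes from a broad kinome profiling panel, with GSK3B as the panel member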
Glycogen synthase kinase-3 beta, sequence (P49841 whole entry): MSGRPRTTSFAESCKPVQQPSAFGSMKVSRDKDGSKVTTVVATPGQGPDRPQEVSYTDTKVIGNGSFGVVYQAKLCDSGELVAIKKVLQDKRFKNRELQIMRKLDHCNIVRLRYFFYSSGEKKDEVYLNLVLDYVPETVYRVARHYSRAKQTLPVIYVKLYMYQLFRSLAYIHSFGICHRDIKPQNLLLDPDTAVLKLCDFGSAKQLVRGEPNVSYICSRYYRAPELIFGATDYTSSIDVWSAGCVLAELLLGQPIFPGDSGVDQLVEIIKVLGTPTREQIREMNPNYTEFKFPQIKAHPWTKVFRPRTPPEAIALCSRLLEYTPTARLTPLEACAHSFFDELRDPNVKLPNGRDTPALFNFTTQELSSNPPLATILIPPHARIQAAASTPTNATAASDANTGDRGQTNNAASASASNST

[6] = target: cAMP-dependent protein kinase catalytic subunit alpha (Homo sapiens, UniProt P17612)
[7] = target: Mitogen-activated protein kinase kinase kinase kinase 4 (Homo sapiens, UniProt O95819)
Mitogen-activated protein kinase kinase kinase kinase 4, sequence (O95819 whole entry): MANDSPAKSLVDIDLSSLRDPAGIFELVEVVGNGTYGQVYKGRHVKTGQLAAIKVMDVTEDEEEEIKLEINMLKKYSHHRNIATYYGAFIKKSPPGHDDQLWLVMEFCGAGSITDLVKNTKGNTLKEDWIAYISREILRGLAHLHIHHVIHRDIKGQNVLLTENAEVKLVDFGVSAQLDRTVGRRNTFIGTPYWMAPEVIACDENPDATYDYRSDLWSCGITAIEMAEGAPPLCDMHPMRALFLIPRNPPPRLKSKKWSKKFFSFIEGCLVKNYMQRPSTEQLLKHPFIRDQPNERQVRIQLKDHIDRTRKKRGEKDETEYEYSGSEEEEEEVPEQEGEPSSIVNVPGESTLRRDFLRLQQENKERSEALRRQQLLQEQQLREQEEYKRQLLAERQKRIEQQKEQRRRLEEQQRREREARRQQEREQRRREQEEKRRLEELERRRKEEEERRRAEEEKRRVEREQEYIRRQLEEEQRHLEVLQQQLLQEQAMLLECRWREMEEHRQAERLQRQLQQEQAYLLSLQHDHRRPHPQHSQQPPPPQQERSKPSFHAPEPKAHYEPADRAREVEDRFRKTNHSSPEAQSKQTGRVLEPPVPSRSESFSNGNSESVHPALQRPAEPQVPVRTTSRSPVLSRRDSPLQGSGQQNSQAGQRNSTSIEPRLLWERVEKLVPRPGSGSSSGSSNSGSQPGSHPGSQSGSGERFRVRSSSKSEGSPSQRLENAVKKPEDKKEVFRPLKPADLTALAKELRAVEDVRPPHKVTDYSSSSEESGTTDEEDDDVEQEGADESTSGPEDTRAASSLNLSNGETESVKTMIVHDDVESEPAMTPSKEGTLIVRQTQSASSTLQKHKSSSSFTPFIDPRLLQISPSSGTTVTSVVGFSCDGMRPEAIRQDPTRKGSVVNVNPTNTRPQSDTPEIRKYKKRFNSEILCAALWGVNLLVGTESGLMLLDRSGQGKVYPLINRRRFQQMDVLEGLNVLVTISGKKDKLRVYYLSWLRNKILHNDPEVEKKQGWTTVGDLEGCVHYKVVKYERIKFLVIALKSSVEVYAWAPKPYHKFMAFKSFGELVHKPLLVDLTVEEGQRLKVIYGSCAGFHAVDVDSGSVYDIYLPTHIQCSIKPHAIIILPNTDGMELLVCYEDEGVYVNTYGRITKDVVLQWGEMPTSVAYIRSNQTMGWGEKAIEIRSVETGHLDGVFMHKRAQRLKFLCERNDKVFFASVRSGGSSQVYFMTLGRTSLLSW

[8] = target: T6, Interleukin-1 receptor-associated kinase 4 (Homo sapiens, UniProt Q9NWZ3)
T6 sequence (Q9NWZ3 whole entry): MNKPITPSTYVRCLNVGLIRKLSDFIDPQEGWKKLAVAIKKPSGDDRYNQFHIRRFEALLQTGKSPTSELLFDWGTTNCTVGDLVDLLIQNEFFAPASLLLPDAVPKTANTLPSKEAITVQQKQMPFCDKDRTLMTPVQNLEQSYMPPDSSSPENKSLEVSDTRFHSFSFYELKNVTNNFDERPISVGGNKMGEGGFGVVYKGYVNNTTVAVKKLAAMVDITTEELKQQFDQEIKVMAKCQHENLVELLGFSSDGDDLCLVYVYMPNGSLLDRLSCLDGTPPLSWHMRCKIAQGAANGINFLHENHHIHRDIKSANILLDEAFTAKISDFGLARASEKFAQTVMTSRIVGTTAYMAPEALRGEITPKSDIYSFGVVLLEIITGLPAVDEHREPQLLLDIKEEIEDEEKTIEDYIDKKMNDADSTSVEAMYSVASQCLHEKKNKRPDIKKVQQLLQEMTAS

[9] = target: Homeodomain-interacting protein kinase 2 (Homo sapiens, UniProt Q9H2X6);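 also: measured within a kinome-wide kinase profiling panel, HIPK2 being one panel member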
Homeodomain-interacting protein kinase 2, sequence (Q9H2X6 whole entry): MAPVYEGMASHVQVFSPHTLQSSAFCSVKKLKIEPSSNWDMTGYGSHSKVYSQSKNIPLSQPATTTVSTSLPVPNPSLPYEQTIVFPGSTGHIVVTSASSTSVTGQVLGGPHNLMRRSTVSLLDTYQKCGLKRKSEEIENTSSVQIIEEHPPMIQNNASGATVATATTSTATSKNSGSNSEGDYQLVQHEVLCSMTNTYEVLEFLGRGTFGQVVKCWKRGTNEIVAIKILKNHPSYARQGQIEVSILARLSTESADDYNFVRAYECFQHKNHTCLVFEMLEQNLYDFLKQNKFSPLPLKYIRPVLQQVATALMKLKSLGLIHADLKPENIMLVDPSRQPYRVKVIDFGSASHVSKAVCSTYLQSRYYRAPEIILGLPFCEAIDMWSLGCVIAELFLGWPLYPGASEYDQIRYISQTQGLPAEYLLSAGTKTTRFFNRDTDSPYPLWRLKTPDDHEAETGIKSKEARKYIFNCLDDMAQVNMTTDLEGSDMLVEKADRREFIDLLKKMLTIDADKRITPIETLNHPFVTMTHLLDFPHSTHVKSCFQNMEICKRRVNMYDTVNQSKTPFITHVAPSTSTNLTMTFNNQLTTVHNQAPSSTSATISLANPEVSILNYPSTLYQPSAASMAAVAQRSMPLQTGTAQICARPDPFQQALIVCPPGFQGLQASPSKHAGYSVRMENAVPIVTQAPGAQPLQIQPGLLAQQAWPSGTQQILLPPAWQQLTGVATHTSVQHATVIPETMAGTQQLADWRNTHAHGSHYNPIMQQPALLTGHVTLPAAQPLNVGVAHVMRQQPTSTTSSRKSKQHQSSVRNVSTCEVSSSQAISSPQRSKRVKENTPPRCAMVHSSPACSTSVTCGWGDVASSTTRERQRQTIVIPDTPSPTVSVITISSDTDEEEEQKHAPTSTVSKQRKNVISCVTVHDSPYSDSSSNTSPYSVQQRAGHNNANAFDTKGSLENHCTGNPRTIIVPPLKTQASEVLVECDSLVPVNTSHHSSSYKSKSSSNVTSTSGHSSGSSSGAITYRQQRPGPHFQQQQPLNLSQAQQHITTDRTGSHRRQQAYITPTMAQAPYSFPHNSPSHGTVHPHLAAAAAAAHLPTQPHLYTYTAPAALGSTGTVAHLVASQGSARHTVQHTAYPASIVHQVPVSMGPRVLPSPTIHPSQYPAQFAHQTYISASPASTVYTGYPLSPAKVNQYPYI

[10] = target: Serine/threonine-protein kinase pim-1 (Homo sapiens, UniProt P11309)
Serine/threonine-protein kinase pim-1, sequence (P11309 whole entry): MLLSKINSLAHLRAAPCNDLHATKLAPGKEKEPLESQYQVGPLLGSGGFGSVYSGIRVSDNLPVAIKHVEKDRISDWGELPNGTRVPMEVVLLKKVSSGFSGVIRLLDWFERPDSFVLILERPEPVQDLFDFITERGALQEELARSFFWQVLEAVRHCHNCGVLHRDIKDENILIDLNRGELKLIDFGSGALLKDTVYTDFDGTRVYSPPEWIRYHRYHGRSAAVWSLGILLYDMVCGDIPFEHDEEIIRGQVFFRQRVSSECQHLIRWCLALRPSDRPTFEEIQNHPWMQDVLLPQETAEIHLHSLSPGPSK

[11] = target: MAP kinase-interacting serine/threonine-protein kinase 2 (Homo sapiens, UniProt Q9HBH9)
MAP kinase-interacting serine/threonine-protein kinase 2, sequence (Q9HBH9 whole entry): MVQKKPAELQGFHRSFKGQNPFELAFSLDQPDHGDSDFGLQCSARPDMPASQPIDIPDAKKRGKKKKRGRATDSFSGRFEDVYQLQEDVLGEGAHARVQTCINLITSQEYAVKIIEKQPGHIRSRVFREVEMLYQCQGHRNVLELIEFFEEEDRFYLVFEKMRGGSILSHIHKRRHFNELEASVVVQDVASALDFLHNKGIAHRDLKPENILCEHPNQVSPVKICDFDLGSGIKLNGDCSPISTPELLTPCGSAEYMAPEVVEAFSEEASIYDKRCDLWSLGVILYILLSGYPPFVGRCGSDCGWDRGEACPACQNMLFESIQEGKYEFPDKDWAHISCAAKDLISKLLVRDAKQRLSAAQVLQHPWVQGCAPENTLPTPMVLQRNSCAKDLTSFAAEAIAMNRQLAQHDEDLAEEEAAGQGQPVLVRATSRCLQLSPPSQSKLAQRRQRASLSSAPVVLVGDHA

[12] = target: Cell division cycle 7-related protein kinase (Homo sapiens, UniProt O00311);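 also: value obtained from a kinome-wide kinase panel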
Aurora kinase B = Aurora kinase B (Homo sapiens, UniProt Q96GD4)
Aurora kinase B, sequence (Q96GD4 whole entry): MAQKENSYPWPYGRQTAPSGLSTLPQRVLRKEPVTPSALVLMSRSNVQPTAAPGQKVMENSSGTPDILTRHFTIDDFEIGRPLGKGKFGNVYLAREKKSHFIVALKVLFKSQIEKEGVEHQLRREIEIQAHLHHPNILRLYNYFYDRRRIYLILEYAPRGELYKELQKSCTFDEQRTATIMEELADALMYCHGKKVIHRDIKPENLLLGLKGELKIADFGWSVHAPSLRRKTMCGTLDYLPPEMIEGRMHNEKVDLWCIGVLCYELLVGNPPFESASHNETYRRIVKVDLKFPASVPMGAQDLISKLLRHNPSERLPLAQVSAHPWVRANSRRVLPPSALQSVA

Aurora kinase A = target: T7, Aurora kinase A (Homo sapiens, UniProt O14965);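 also: value from the Navigating the Kinome kinase panel profiling, panel entry STK6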
T7 sequence (O14965 whole entry): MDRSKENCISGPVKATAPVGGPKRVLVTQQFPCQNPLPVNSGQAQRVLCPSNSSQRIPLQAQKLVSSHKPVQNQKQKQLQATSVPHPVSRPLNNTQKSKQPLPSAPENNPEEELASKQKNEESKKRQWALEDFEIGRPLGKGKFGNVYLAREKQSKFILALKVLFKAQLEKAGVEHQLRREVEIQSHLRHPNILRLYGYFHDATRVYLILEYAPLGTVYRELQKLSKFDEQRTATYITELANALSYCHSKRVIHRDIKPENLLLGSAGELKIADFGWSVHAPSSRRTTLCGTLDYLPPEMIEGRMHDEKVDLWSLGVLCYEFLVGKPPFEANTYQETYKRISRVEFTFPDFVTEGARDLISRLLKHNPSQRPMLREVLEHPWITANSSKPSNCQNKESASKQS

[13] = target: Vascular endothelial growth factor receptor 2 (Homo sapiens, UniProt P35968)

**Q.** Which results are given for `COc1ccc(COC(=O)c2c(C)nn(-c3ccccc3)c2Cl)cc1`?
**A.** IC50 (Caspase-3): 40200 nM (active); IC50 [1]: 19400 nM (active); IC50 [2]: 98100 nM (active); IC50 [3]: 73300 nM (active)

**Q.** With `C[C@H](CN1CCC2(CC1)C(=O)NCN2c1ccccc1)NC(=O)c1cc2cc(F)ccc2[nH]1` as the compound, how does the IC50 (Phospholipase D2) read?
**A.** 23 nM (active)

**Q.** And the IC50 (Phospholipase D1)?
**A.** 2 nM (active)

**Q.** For `COc1ccc(-c2cc(O)cc(O)c2)cc1`, which IC50 (Caspase-3) is on record?
**A.** 30900 nM (active)

**Q.** What about the EC50 (H4) of the same compound?
**A.** 4120 nM (active)

**Q.** And the IC50 [1]?
**A.** 12300 nM (active)

**Q.** What about the IC50 [2] of the same compound?
**A.** 48000 nM (active)

**Q.** And the EC50 [4]?
**A.** 3800 nM (active)

**Q.** And the IC50 [3]?
**A.** 41100 nM (active)

**Q.** Which IC50 (Phospholipase D2) does the source give for `C[C@@H](CN1CCC2(CC1)C(=O)NCN2c1ccccc1)NC(=O)[C@@H]1C[C@H]1c1ccccc1` here?
**A.** 20000 nM (active)

**Q.** What about the IC50 (Phospholipase D1) of the same compound?
**A.** 2560 nM (active)

**Q.** With `c1cnc2[nH]cc(-c3ccnc(NCC4CCCCC4)n3)c2c1` as the compound, how does the Ki [5] read?
**A.** 126 nM (active)

**Q.** And the Ki [6]?
**A.** 200 nM (active)

**Q.** And the Ki [7]?
**A.** 20 nM (active)

**Q.** What about the Ki [8] of the same compound?
**A.** 316 nM (active)

**Q.** What about the Ki [9] of the same compound?
**A.** 15.8 nM (active)

**Q.** What about the Ki [10] of the same compound?
**A.** > 10000 nM (inactive)

**Q.** And the Ki [11]?
**A.** 79.4 nM (active)

**Q.** And the Ki [12]?
**A.** 7.94 nM (active)

**Q.** Which Ki (Aurora kinase B) does the source give for `CCCCS(=O)(=O)Nc1ccc2c(c1)C(=NO)c1ccccc1-2` here?
**A.** 10 nM (active)

**Q.** What about the Ki (Aurora kinase A) of the same compound?
**A.** 1260 nM (active)

**Q.** And the Ki [13]?
**A.** 1580 nM (active)

**Q.** What does the source list for `CN(CCN1CCC(n2c(=O)[nH]c3ccccc32)CC1)C(=O)c1ccc2ccccc2c1`?
**A.** IC50 (Phospholipase D2): 20000 nM (active); IC50 (Phospholipase D1): 2060 nM (active)
